The values that follow come from ChEMBL document CHEMBL1201862, “PubChem BioAssay data set” (2004).

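Where inhibition never reached the appropriate level, the endpoint shown equals the highest concentration tested. Otherwise, values were interpolated linearly from a five-concentration, 48-hour dose response in 96-well plates. The concentration for 50% growth inhibition is given as GI50.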 Calls of active or inactive are those of the source. No stated cut-off is given here; in the data, active = GI50 up to about 1.1 µM and inactive = higher.

Holding throughout (test): NCI-60 cell line screen, 48 h
For experiment [1], the system named is DLD-1.
Experiment [2] deals with DMS-114.
Experiment [3] concerns DMS-273.
The subject of experiment [4] is HOP-18.
Experiment [5] concerns KM-20L2.
Experiment [6] deals with M19-MEL.
Experiment [7] has as its system RXF 631.
Experiment [8] relates to SNB-78.
Experiment [9] concerns XF498.

`CN(O)C(=S)c1ccccc1`: the GI50 in [1] was 0.619 µM (active); in experiment [2], 1.18 µM (inactive); in experiment [3] it was 0.893 µM (active); in experiment [4] it was > 100 µM (inactive); in [5] it was 3.24 µM (inactive); in [6], 1.19 µM (inactive). Besides, the results for the GI50 in [7] and in experiment [8] were 1.48 µM (inactive) and 6.43 µM (inactive), respectively.

On to `O=CN/C=C/c1ccccc1`, for which the GI50 in [1], in experiment [3], in experiment [4], in experiment [5], in experiment [6] and in [7] was > 100 µM (inactive) in each case. Further, the GI50 in [8] was > 100 µM (inactive).

Turning to `COc1cccc2c1C1(O)C2CCCC12OCCCO2` (stereo unspecified), the GI50 in experiment [1], in experiment [2], in [3], in experiment [4], in experiment [5] and in experiment [6] was > 100 µM (inactive) each time. Besides, in experiment [8], the GI50 is > 100 µM (inactive).

Take `O=c1nc(-c2ccccc2)c2c3c(cccn13)CCC2`: the GI50 in experiment [1], in [2], in experiment [3], in [6], in experiment [8] and in experiment [9] was > 100 µM (inactive) each time.

As for `Cc1nc(-n2nc(-c3ccccc3)cc2-c2ccccc2)sc1C(/C=C/c1ccc([N+](=O)[O-])cc1)=N/NC(N)=S`, the GI50 in experiment [1] was 43 µM (inactive); in [2] it was 16.9 µM (inactive); in experiment [5], 40.5 µM (inactive); in experiment [6], 42 µM (inactive); in [8], 18.7 µM (inactive).

`Cc1cccc(/C=N/N=C(\N)NO)n1`: the GI50 is 18.7 µM (inactive) in [1]; 12.1 µM (inactive) in experiment [2]; 35.7 µM (inactive) in experiment [3]; 68.7 µM (inactive) in experiment [6]; > 100 µM (inactive) in experiment [7]; > 100 µM (inactive) in experiment [8]. For the same compound, in experiment [9], the GI50 is 39.4 µM (inactive).

As to `Nc1ccccc1/C(O)=C1/CCOC1=O`, the GI50 in experiment [1], in [2], in [6], in experiment [8] and in [9] was > 100 µM (inactive) in each case.

Turning to `COC(=O)C1Cc2c(n(C)c3ccccc23)C(CCC(=O)O)N1Cc1ccccc1` (stereo unspecified), the GI50 is > 100 µM (inactive) in experiment [1]; 26.7 µM (inactive) in experiment [2]; 31.6 µM (inactive) in experiment [3]; 34.9 µM (inactive) in experiment [5]; 32.1 µM (inactive) in experiment [6]; 36.9 µM (inactive) in experiment [7]. The values for the GI50 in [8] and in [9] were 32.8 µM (inactive) and 28.1 µM (inactive), respectively.

On to `COc1ccc(C(O)C(c2ccc(OCc3ccccc3)cc2)c2ccc(OCc3ccccc3)cc2)cc1` (stereo unspecified), for which the GI50 in [1], in experiment [2], in experiment [3], in experiment [5], in [6] and in experiment [8] was > 100 µM (inactive) each time. The GI50 in experiment [9] was > 100 µM (inactive).

As for `CCC(C)CN1C(=O)NC(C)(Cc2ccccc2)C1=O` (stereo unspecified), the GI50 in [1], in experiment [2], in experiment [3], in [4], in experiment [5] and in experiment [6] was > 100 µM (inactive) throughout. For the same compound, the GI50 in [8] and in [9] was > 100 µM (inactive) throughout.

Consider `O=C(CCCC(=O)Nc1ccc(Cl)cc1Cl)CC(=O)c1ccc2ccccc2c1`, for which the GI50 in [1], in experiment [2], in experiment [3], in [4], in experiment [5] and in experiment [6] was > 100 µM (inactive) throughout. Besides, the GI50 in [7] and in experiment [8] was > 100 µM (inactive) each time.

With `Oc1ncnc2c1nnn2CCCn1nnc2c(O)ncnc21`, the GI50 in experiment [1], in experiment [2], in [3], in experiment [4], in experiment [5] and in [6] was > 100 µM (inactive) throughout. The GI50 in experiment [8] and in [9] was > 100 µM (inactive) each time.

Consider `CC1=NN(C(=O)c2ccc([N+](=O)[O-])cc2)C(=O)C1/N=N/c1ccccc1C(=O)O` (stereo unspecified), for which the GI50 in [1], in experiment [2], in [3], in experiment [6] and in experiment [8] was > 100 µM (inactive) throughout.

Take `O=C(CCCCCCCCCCc1ccccc1)C1=C(O)CCCC1=O`: the GI50 was 41.1 µM (inactive) in experiment [1]; 18.6 µM (inactive) in experiment [2]; 20.5 µM (inactive) in [3]; 38.6 µM (inactive) in experiment [4]; 32.4 µM (inactive) in experiment [5]; 32.7 µM (inactive) in [6]. Besides, the GI50 in [8] is 52.4 µM (inactive); in experiment [9], 42.5 µM (inactive).

Consider `O=C(O/N=C1/CCC/C1=C\c1ccccc1)c1ccc(Cl)cc1`, for which the GI50 was 23.9 µM (inactive) in experiment [1]; > 76.9 µM (inactive) in experiment [3]; > 100 µM (inactive) in [4]; > 100 µM (inactive) in [5]; > 100 µM (inactive) in [6]; 32.8 µM (inactive) in experiment [8]. In addition, in experiment [9], the GI50 was 61.5 µM (inactive).

Regarding `C/C=C1/CCC2c3[nH]c4ccccc4c3CCN2C1` (stereo unspecified), the GI50 was > 100 µM (inactive) in experiment [1]; 93.8 µM (inactive) in experiment [2]; > 100 µM (inactive) in [3]; 97.1 µM (inactive) in [5]; 86.3 µM (inactive) in experiment [6]; > 100 µM (inactive) in experiment [8]. In experiment [9], the GI50 was 55.6 µM (inactive).

On to `N=C(c1ccccc1)N(O)C1CCCCC1`, for which the GI50 in [1], in experiment [2], in [3], in experiment [4], in [5] and in [6] was > 100 µM (inactive) throughout. Moreover, the GI50 in experiment [8] is > 100 µM (inactive).

For the compound `O=C(CC1(O)C(=O)Nc2ccccc21)c1ccc(O)cc1` (stereo unspecified), the GI50 in experiment [1] was > 100 µM (inactive); in experiment [2] it was > 100 µM (inactive); in [3], > 100 µM (inactive); in experiment [4], > 100 µM (inactive); in [5], > 100 µM (inactive); in experiment [6] it was 70.1 µM (inactive). The GI50 in experiment [7] and in experiment [8] was > 100 µM (inactive) in each case.

Regarding `CN(/N=C\c1ccnc2ccccc12)c1ccc([N+](=O)[O-])cc1`, the GI50 in [3] was 42.5 µM (inactive); in [5], > 100 µM (inactive); in experiment [6], 65.3 µM (inactive); in experiment [7], > 100 µM (inactive); in experiment [8] it was > 100 µM (inactive); in experiment [9], > 100 µM (inactive).

For `O=C1c2ccccc2C(=O)c2c1ccc1c3ccccc3n(-c3ccccc3)c21`, the GI50 in experiment [1] was 17.1 µM (inactive); in experiment [3], 18.6 µM (inactive); in experiment [4], 14.5 µM (inactive); in experiment [5], 21.5 µM (inactive); in [6] it was 18.8 µM (inactive); in [7], 7.94 µM (inactive). Further, the GI50 in experiment [8] was 21.1 µM (inactive).

Consider `O=[N+]([O-])c1nccn1COCCO`, for which the GI50 in experiment [1] was > 100 µM (inactive); in experiment [2], > 100 µM (inactive); in [3] it was > 100 µM (inactive); in [4], 28.1 µM (inactive); in experiment [5], > 100 µM (inactive); in experiment [7], > 100 µM (inactive). Besides, the GI50 in experiment [8] and in experiment [9] was > 100 µM (inactive) throughout.

Take `Cc1cccc(C(C)(C)C)c1NC(=O)CC1C(=O)Nc2ccccc2[S+]1[O-]` (stereo unspecified): the GI50 is 44.9 µM (inactive) in experiment [1]; 38.1 µM (inactive) in experiment [3]; 57.5 µM (inactive) in [5]; 70.3 µM (inactive) in experiment [7]; 54.6 µM (inactive) in experiment [8]; 68.9 µM (inactive) in experiment [9].

Consider `[N-]=[N+]=Nc1ccccc1-[n+]1noc([O-])c1Br`, for which the GI50 in experiment [1], in experiment [2], in [4], in [5] and in experiment [6] was > 100 µM (inactive) throughout.

Take `COc1ccc(Cc2cc3c(cc2OCC(=O)O)OCO3)cc1`: the GI50 in experiment [1], in [2], in [5], in [6] and in [7] was > 100 µM (inactive) in each case.

As to `CCCCSC(=CC(=O)c1cccc(C(=O)C=C(SCCCC)SCCCC)n1)SCCCC`, the GI50 in experiment [1], in experiment [2], in experiment [3], in experiment [4], in experiment [5] and in experiment [6] was > 100 µM (inactive) in each case. Further, the GI50 in [8] and in experiment [9] was > 100 µM (inactive) throughout.
